Laboratory results taken from publication PMC2861598, “Ligand Binding and Crystal Structures of the Substrate-Binding Domain of the ABC Transporter OpuA” (PLoS ONE, 2010).
Values joined by “and” are separate entries in the source; they are usually repeats but may differ in a detail not shown here. Identical values can stand only once. “Also recorded” adds a separate entry of the source. Like-named read-outs stand apart in the source and are kept apart here.

How the values were obtained:
purified OpuA [1] = biological target: T1, purified OpuA (Lactococcus lactis subsp. lactis, UniProt Q7DAU8); assay: Glycine betaine binding to purified DDM-solubilized OpuA, intrinsic protein fluorescence; conditions: for Kd / ΔFmax: pH7.0
T1 sequence (Q7DAU8 1-573): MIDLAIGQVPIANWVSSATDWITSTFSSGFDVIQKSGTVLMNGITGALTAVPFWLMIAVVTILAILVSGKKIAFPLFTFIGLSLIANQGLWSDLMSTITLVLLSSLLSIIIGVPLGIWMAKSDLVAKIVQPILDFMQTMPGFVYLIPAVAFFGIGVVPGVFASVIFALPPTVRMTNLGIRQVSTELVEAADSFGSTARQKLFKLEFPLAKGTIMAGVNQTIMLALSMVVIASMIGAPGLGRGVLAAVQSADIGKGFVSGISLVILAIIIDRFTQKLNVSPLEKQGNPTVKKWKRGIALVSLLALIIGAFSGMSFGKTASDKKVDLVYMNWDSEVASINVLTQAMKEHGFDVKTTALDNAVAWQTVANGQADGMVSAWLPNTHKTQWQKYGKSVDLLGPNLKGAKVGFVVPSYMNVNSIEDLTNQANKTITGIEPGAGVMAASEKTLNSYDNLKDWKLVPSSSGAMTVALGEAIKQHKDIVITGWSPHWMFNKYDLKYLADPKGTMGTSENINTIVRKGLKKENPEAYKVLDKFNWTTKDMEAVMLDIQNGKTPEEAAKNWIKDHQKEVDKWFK
T1 sequence (Q9KIF7 1-408 partner): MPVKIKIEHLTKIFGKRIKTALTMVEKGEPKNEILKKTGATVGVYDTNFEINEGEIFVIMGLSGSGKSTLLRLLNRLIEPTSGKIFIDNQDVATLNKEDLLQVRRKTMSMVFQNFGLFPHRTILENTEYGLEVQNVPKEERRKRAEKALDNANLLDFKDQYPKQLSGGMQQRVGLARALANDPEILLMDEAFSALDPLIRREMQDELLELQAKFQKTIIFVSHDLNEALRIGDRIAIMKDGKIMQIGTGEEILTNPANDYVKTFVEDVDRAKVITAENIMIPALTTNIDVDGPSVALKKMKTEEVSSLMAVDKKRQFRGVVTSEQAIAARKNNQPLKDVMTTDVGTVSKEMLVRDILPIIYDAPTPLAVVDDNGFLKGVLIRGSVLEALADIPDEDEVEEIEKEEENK
Method: (§1) Fluorescence spectra were obtained with a Fluorolog®-3 (Jobin Yvon) spectrofluorometer. A quartz-cuvette containing 800 µL of protein sample was incubated for 10 minutes at 25°C under constant stirring before stepwise addition of the substrate (or buffer as control), using a Hamilton syringe pump (Harvard apparatus). Samples were incubated for 5 seconds before the fluorescence signal was collected for 20 seconds to obtain an averaged value at each substrate concentration.
(§2) For the intrinsic protein fluorescence measurements, the excitation and emission wavelengths were 295 and 360 nm (and slit widths of 1 and 5 nm), respectively. To determine the salt dependence of ligand-binding to purified OpuA, the buffer was exchanged to various KPi concentrations (12.5–250 mM), pH 7.0, 20% glycerol and 0.05% DDM, using a NAP10 column (GE Healthcare). Corrections for background fluorescence changes were made by titrations with buffer.
(§3) Fluorescence titrations were analyzed essentially as described by Lanfermeijer. Curve fitting was performed in Origin (OriginLab).

[2] = biological target: T2, OpuAC (substrate-binding domain of OpuA) (Lactococcus lactis, UniProt Q9RQ05); assay: Ligand binding to purified OpuAC, intrinsic protein fluorescence (direct titration); conditions: for ΔFmax: pH7.0
T2 sequence (Q9RQ05 320-573): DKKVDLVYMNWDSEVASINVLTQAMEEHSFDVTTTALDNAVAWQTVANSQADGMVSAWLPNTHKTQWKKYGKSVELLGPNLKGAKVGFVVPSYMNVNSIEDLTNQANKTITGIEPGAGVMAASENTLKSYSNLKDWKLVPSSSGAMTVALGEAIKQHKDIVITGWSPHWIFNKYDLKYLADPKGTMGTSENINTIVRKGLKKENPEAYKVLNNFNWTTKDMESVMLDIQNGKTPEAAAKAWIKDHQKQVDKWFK
Method: as §1, §2, §3

purified OpuA [3] = biological target: T1, purified OpuA; assay: Filter-based assay with radio-labeled glycine betaine (ammonium sulfate precipitation); format: binding
Method: This method is based on the principle that upon salting-out of the protein (by ammonium sulfate), the substrate remains trapped in the ligand-binding site. For these measurements, purified OpuA in the presence of 0.05% (w/v) n-dodecyl-β-maltopyranoside (DDM) was mixed such that the protein (at a final concentration of 100 µg/mL) was in a buffer composed of 10, 50 or 250 mM KPi pH7.0, 20% glycerol and 0.05% DDM. The binding assays were carried in a volume of 100 µL. […] The mixture was filtered rapidly through 0.45 µm pore-size cellulose nitrate filters. The filters were washed twice with 2 ml ammonium sulfate solution. Subsequently, the filters were placed in an open plastic vial and dried under heating in an oven at 37°C for 2 hours. The radioactivity on the filters was measured via liquid scintillation counting, using emulsifier plus scintillation liquid (Perkin Elmer). Measurements were corrected for background signals and the average of the corrected data was fitted as described under fluorescence measurements.

OpuAC [4] = biological target: T3, OpuAC (Lactococcus lactis, UniProt Q9RQ05); assay: Isothermal titration calorimetry of glycine betaine binding; conditions: ITC
T3 sequence (Q9RQ05 320-573): T2 sequence (Q9RQ05 320-573)
Method: 200 µL of OpuAC (concentrated to 50 µM in 150 mM KPi, pH 7) was added to the cell. […] Typically, 20 injections of 2 µL volume were made with intervals of 120 seconds between each addition.

[5] = system: OpuA reconstituted in proteoliposomes; assay: Substrate transport in OpuA-containing proteoliposomes, filter-based assay; format: biochemical, Lactococcus lactis; conditions: 14C-labeled substrate, 50 µM (51 µM) or 5 mM, up to 30 min, 200 mM KPi pH 7 external
Method: Proteoliposomes were prepared as described previously by Geertsma et al. with an ATP regenerating system present and using 200 mM KPi, pH 7, as external medium. The transport activity was measured using a filter-based assay as described by Geertsma et al. in a time dependent way (up to 30 min), using a fixed concentration of 50 µM or 5 mM of substrate.

OpuAΔSBD = assay: Ligand binding to OpuAΔSBD; design: species or system Lactococcus lactis; conditions: data not shown
OpuAΔCBS = assay: Ligand binding to OpuAΔCBS; design: species or system Lactococcus lactis; conditions: data not shown
purified OpuA [6] = biological target: T1, purified OpuA; assay: Glycine betaine binding to purified DDM-solubilized OpuA, intrinsic protein fluorescence; conditions: OpuA solubilized in DDM; over all salt concentrations (10–250 mM KPi); read-out: dissociation constant (Kd)
[7] = biological target: OpuA in a lipidic environment; design: method as in PMID 14609945; conditions: read-out: dissociation constant; cited from earlier work
OpuAC [8] = biological target: T3, OpuAC; assay: Competitive inhibition of glycine betaine-induced fluorescence changes; format: binding
Method: as §1, §2, §3

With C[N+](C)(C)CC(=O)[O-] [glycine betaine] the “increase of dissociation constant in DDM-solubilized state versus lipidic environment” value (purified OpuA [1]) was “around 10 fold”, the Kd (purified OpuA [1]; 12.5 mM KPi) was 6 ± 0.5 µM and the ΔFmax (purified OpuA [1]; 12.5 mM KPi) was 9.9±0.3%. It also gave a Kd (purified OpuA [1]; 50 mM KPi) of 6 ± 0.7 µM, a ΔFmax (purified OpuA [1]; 50 mM KPi) of 10.8±0.4% and a Kd (purified OpuA [1]; 250 mM KPi) of 5.2 ± 0.2 µM. The ΔFmax (purified OpuA [1]; 250 mM KPi) was 9.3±0.2%, the maximal fluorescence change (purified OpuA [1]; over all salt concentrations) was 9–11% and the bound glycine betaine ([2]; 19.6 µM OpuAC in 150 mM KPi pH 7.0) was 0.74 mol glycine betaine per mol of OpuAC. The bound substrate ([2]; 19.6 µM OpuAC in 150 mM KPi pH 7.0, data fit) was 14.5 ± 1.6 µM, the ΔFmax ([2]; OpuAC, 12.5 mM KPi) was 23.6±1.1% and the ΔFmax ([2]; OpuAC, 50 mM KPi) was 23.4±0.9%. For the same compound, the ΔFmax ([2]; OpuAC, 250 mM KPi) was 23.1±1.2%, the maximal fluorescence change ([2]; OpuAC, over all salt concentrations) was 23–24% and the “amount of glycine betaine bound” value ([2]; very high protein concentration) was 0.74 mol/mol OpuAC. For the same compound, the “maximal number of binding sites” value (purified OpuA [3]; all salt concentrations) was roughly 3 nmol/mg OpuA, the Kd (purified OpuA [3]; averaged from duplicate measurements for all salt concentrations (10, 50, 250 mM KPi), 30°C) was 7.3 µM and the “glycine betaine bound per mol of OpuAC” value (OpuAC [4]; 50 µM OpuAC, 150 mM KPi pH 7, 25°C) was 0.7 mol. For the same compound, the Gibbs free energy (OpuAC [4]; 25°C) was -7.5 kcal/mol, the “enthalpy change (ΔH)” value (OpuAC [4]; 25°C) was -3.8 ± 0.1 kcal/mol and the “transport into OpuA-containing proteoliposomes” value [5] was “transported against a concentration gradient; also recorded: transport against a large concentration gradient”. The glycine betaine binding (OpuAΔSBD) was “did not show any glycine betaine binding”, the “effect of deletion of the CBS domains on dissociation constant” value (OpuAΔCBS) was “did not alter the dissociation constant” and the Kd (purified OpuA [6]) was 4 to 6 µM and 5 to 6 µM. The Kd [7] was roughly 0.5 µM.
For O=C(O)[C@@H]1CCCN1 [Proline], the “transport into OpuA-containing proteoliposomes” value [5] was “no accumulation of the proline” and the “transport into OpuA-containing proteoliposomes” value ([5]; listed as proline) was “entered the vesicles slowly but at an equal rate in the proteoliposomes and the liposomes devoid of OpuA”.
C[N+]1(C)CCC[C@H]1C(=O)[O-] [Proline betaine] showed a Ki (OpuAC [8]; inhibition of glycine betaine binding, ∼0.5 µM OpuAC) of 41 ± 8 µM and a Ki (OpuAC [8]; inhibition of glycine betaine binding, ∼0.5 µM OpuAC, listed as proline betaine) of roughly 41 µM.
With C[N+](C)(C)CC(O)CC(=O)[O-] (centres unmarked) [Carnitine] the “fluorescence response on direct titration” value ([2]; ∼0.5 µM OpuAC) was “did not reach a stable end-level”, the Ki (OpuAC [8]) was 65000 ± 11000 µM and the “transport into OpuA-containing proteoliposomes” value [5] was “not taken up”.
